Source: US10738028B2, “Spiro three-membered ring, spiro five-membered ring peptide deformylase inhibitor and use thereof in antibacteria and anti-tumor” (priority 2016, dated 2020)
Converted amounts (≈) assume the structure as drawn.

Legend:
Assay type in all cases: cell-based
[1] = system: Streptococcus pneoumoniae (SPN); test: MIC, two-fold agar dilution (CLSI), clinical isolates
Description: (§1) 1. The invention adopts the two-fold agar dilution method recommended by the operating procedure of antimicrobial susceptibility testing set by American Clinical and Laboratory Standards Institute (CLSI) to determine the Minimum Inhibitory Concentration (MIC) of the test samples against the tested strains.

[2] = system: Escherichia coli (including ESBLs, non-ESBLs); test: as above
Description: as §1

[3] = system: methicillin-sensitive Staphylococcus aureus (MSSA); test: as above
Description: as §1

[4] = system: methicillin-resistant Staphylococcus epidermidis (MRSE); test: as above
Description: as §1

[5] = system: methicillin-sensitive Staphylococcus epidermidis (MSSE); test: as above
Description: as §1

[6] = system: Enterococcus faecium (EFM); test: as above
Description: as §1

[7] = system: Enterococcus faecalis (EFA); test: as above
Description: as §1

[8] = system: methicillin-resistant Staphylococcus aureus (MRSA); test: as above
Description: as §1

[9] = system: Moraxella catarrhalis (BCA); test: as above
Description: as §1

[10] = system: HCT-116 colorectal cancer cell line; test: CCK-8 proliferation inhibition; conditions: Homo sapiens, HCT-116, 72 h, concentration of 30 μM; 72 hours; CCK-8; read-out: HCT116 inhibition rate/%
Experimental: (1) HCT-116 colorectal cancer cell line, A549 lung cancer cell line, MGC-803 gastric cancer cell line, BEL-7402 liver cancer cell line, Jurkat T cell leukemia cell line, HL60 acute myeloid leukemia cell line, Hela cervical cancer cell line, MCF-7 breast cancer cell line, PC3 prostate cancer cell line and SAOS-2 osteosarcoma cell line were made into single cell suspension, 180 μL of which was inoculated into 96-well culture plate, which was cultured overnight in CO2 incubator (37° C., 5% CO2, 95% air).
(2) Each of the spiro three-membered ring, spiro five membered ring peptide deformylase inhibitors was dissolved in DMSO, and was further formulated into drug solution with required different final concentration using corresponding cell culture medium. The drug solutions were added to the above cells respectively (20 μL/well), with the control group added with 1‰ DMSO, and cultured in a CO2 incubator for 72 hours.
(3) After incubation for 72 hours, the culture solution was decanted, and 100 μL of 1:10 diluted CCK-8 solution was added.
Wherein, in step (1), the concentration of the single cell suspension was 2000 cells/well.
Wherein, in step (2), HCT-116 cells were cultured in McCoy's 5A medium (containing 10% newborn bovine serum, 1% double antibody); A549 and PC3 cells were cultured in F12 medium (containing 10% newborn bovine serum, 1% double antibody); MGC-803, BEL-7402, SAOS-2, Jurkat and HL60 cells were cultured in 1640 medium (containing 10% newborn bovine serum, 1% double antibody); and MCF-7 and Hela cells were cultured in DMEM high glucose medium (containing 10% newborn bovine serum, 1% double antibody).

Compound CCCC[C@H](CN(O)C=O)C(=O)N1CC2(CC2)C[C@H]1C(=O)Nc1cnccn1 [Example 15] has an MIC (anti-bacterial activity) ([1]; strain SPN 16-2) of 0.015 µg/mL (≈ 0.0385 µM), an MIC (anti-bacterial activity) ([1]; strain SPN 16-4) of 0.5 µg/mL (≈ 1.28 µM) and an MIC (anti-bacterial activity) ([2]; strain ECO+ 15-1) of 32 µg/mL (≈ 82.2 µM). For the same compound, the MIC (anti-bacterial activity) ([2]; strain ECO+ 15-2) was 64 µg/mL (≈ 164 µM), the MIC (anti-bacterial activity) ([2]; strain ECO+ 15-3) was 32 µg/mL (≈ 82.2 µM) and the MIC (anti-bacterial activity) ([2]; strain ECO+ 15-4) was 32 µg/mL (≈ 82.2 µM). The MIC (anti-bacterial activity) ([2]; strain ECO− 15-1) was 32 µg/mL (≈ 82.2 µM), the MIC (anti-bacterial activity) ([2]; strain ECO− 15-2) was 64 µg/mL (≈ 164 µM) and the MIC (anti-bacterial activity) ([2]; strain ECO− 15-3) was 64 µg/mL (≈ 164 µM). It also gave an MIC (anti-bacterial activity) ([2]; strain ECO− 15-4) of 64 µg/mL (≈ 164 µM), an MIC (anti-bacterial activity) ([3]; strain MSSA 15-3) of 0.25 µg/mL (≈ 0.642 µM) and an MIC (anti-bacterial activity) ([3]; strain MSSA 15-4) of 0.125 µg/mL (≈ 0.321 µM). The MIC (anti-bacterial activity) ([3]; strain MSSA 15-5) was 0.125 µg/mL (≈ 0.321 µM), the MIC (anti-bacterial activity) ([3]; strain MSSA 15-6) was 0.125 µg/mL (≈ 0.321 µM) and the MIC (anti-bacterial activity) ([4]; strain MRSE 15-1) was 0.125 µg/mL (≈ 0.321 µM). The MIC (anti-bacterial activity) ([4]; strain MRSE 15-2) was 0.25 µg/mL (≈ 0.642 µM), the MIC (anti-bacterial activity) ([4]; strain MRSE 15-3) was 0.25 µg/mL (≈ 0.642 µM) and the MIC (anti-bacterial activity) ([4]; strain MRSE 15-7) was 0.25 µg/mL (≈ 0.642 µM). For the same compound, the MIC (anti-bacterial activity) ([5]; strain MSSE 15-3) was 0.25 µg/mL (≈ 0.642 µM), the MIC (anti-bacterial activity) ([5]; strain MSSE 15-4) was 0.06 µg/mL (≈ 0.154 µM) and the MIC (anti-bacterial activity) ([5]; strain MSSE 15-5) was 0.06 µg/mL (≈ 0.154 µM). It also gave an MIC (anti-bacterial activity) ([5]; strain MSSE 15-6) of 0.06 µg/mL (≈ 0.154 µM), an MIC (anti-bacterial activity) ([6]; strain EFM 15-1) of 1 µg/mL (≈ 2.57 µM) and an MIC (anti-bacterial activity) ([6]; strain EFM 15-2) of 1 µg/mL (≈ 2.57 µM). For the same compound, the MIC (anti-bacterial activity) ([6]; strain EFM 15-3) was 0.125 µg/mL (≈ 0.321 µM), the MIC (anti-bacterial activity) ([6]; strain EFM 15-4) was 1 µg/mL (≈ 2.57 µM) and the MIC (anti-bacterial activity) ([6]; strain EFM 15-5) was 0.125 µg/mL (≈ 0.321 µM). It also gave an MIC (anti-bacterial activity) ([6]; strain EFM 15-6) of 1 µg/mL (≈ 2.57 µM), an MIC (anti-bacterial activity) ([7]; strain EFA 15-1) of 1 µg/mL (≈ 2.57 µM) and an MIC (anti-bacterial activity) ([7]; strain EFA 15-2) of 1 µg/mL (≈ 2.57 µM). For the same compound, the MIC (anti-bacterial activity) ([7]; strain EFA 15-3) was 1 µg/mL (≈ 2.57 µM), the MIC (anti-bacterial activity) ([7]; strain EFA 15-4) was 1 µg/mL (≈ 2.57 µM) and the MIC (anti-bacterial activity) ([7]; strain EFA 15-5) was 4 µg/mL (≈ 10.3 µM). The MIC (anti-bacterial activity) ([7]; strain EFA 15-6) was 4 µg/mL (≈ 10.3 µM), the MIC (anti-bacterial activity) ([7]; strain EFA 15-9) was 1 µg/mL (≈ 2.57 µM) and the MIC (anti-bacterial activity) ([8]; strain MRSA 15-1) was 0.125 µg/mL (≈ 0.321 µM). For the same compound, the MIC (anti-bacterial activity) ([8]; strain MRSA 15-2) was 0.25 µg/mL (≈ 0.642 µM), the MIC (anti-bacterial activity) ([8]; strain MRSA 15-3) was 0.125 µg/mL (≈ 0.321 µM) and the MIC (anti-bacterial activity) ([8]; strain MRSA 15-4) was 0.25 µg/mL (≈ 0.642 µM). For the same compound, the MIC (anti-bacterial activity) ([9]; strain BCA 14-1) was 0.5 µg/mL (≈ 1.28 µM), the MIC (anti-bacterial activity) ([9]; strain BCA 14-4) was 0.5 µg/mL (≈ 1.28 µM) and the MIC (anti-bacterial activity) ([9]; strain BCA 14-5) was 0.125 µg/mL (≈ 0.321 µM). For the same compound, the MIC (anti-bacterial activity) ([9]; strain BCA 14-6) was 1 µg/mL (≈ 2.57 µM), the MIC (anti-bacterial activity) ([9]; strain BCA 14-7) was 0.125 µg/mL (≈ 0.321 µM) and the MIC (anti-bacterial activity) ([9]; strain BCA 14-8) was 0.5 µg/mL (≈ 1.28 µM). For the same compound, the MIC (anti-bacterial activity) ([9]; strain BCA 14-10) was 0.125 µg/mL (≈ 0.321 µM) and the inhibition at 30 µM [10] was 24%.
Compound CCCC[C@H](CN(O)C=O)C(=O)N1CC2(CC2)C[C@H]1C(=O)Nc1ccncn1 [Example 16, (S)-5-((R)-2-((N-hydroxyformamido)methyl)hexanoyl)-N-(pyrimidin-4-yl)-5-spiro[2.4]heptane-6-carboxamide] has an MIC (anti-bacterial activity) ([1]; strain SPN 16-2) of 4 µg/mL (≈ 10.3 µM), an MIC (anti-bacterial activity) ([1]; strain SPN 16-4) of 0.25 µg/mL (≈ 0.642 µM) and an MIC (anti-bacterial activity) ([2]; strain ECO+ 15-1) of 32 µg/mL (≈ 82.2 µM). For the same compound, the MIC (anti-bacterial activity) ([2]; strain ECO+ 15-2) was greater than 32 µg/mL, the MIC (anti-bacterial activity) ([2]; strain ECO+ 15-3) was greater than 32 µg/mL and the MIC (anti-bacterial activity) ([2]; strain ECO+ 15-4) was greater than 32 µg/mL. It also gave an MIC (anti-bacterial activity) ([2]; strain ECO− 15-1) of 32 µg/mL (≈ 82.2 µM), an MIC (anti-bacterial activity) ([2]; strain ECO− 15-2) greater than 32 µg/mL and an MIC (anti-bacterial activity) ([2]; strain ECO− 15-3) greater than 32 µg/mL. The MIC (anti-bacterial activity) ([2]; strain ECO− 15-4) was greater than 32 µg/mL, the MIC (anti-bacterial activity) ([3]; strain MSSA 15-3) was 1 µg/mL (≈ 2.57 µM) and the MIC (anti-bacterial activity) ([3]; strain MSSA 15-4) was 0.25 µg/mL (≈ 0.642 µM). The MIC (anti-bacterial activity) ([3]; strain MSSA 15-5) was 0.125 µg/mL (≈ 0.321 µM), the MIC (anti-bacterial activity) ([3]; strain MSSA 15-6) was 1 µg/mL (≈ 2.57 µM) and the MIC (anti-bacterial activity) ([4]; strain MRSE 15-1) was 0.06 µg/mL (≈ 0.154 µM). The MIC (anti-bacterial activity) ([4]; strain MRSE 15-2) was 1 µg/mL (≈ 2.57 µM), the MIC (anti-bacterial activity) ([4]; strain MRSE 15-3) was 0.25 µg/mL (≈ 0.642 µM) and the MIC (anti-bacterial activity) ([4]; strain MRSE 15-7) was 0.25 µg/mL (≈ 0.642 µM). It also gave an MIC (anti-bacterial activity) ([5]; strain MSSE 15-3) of 1 µg/mL (≈ 2.57 µM), an MIC (anti-bacterial activity) ([5]; strain MSSE 15-4) of 0.06 µg/mL (≈ 0.154 µM) and an MIC (anti-bacterial activity) ([5]; strain MSSE 15-5) of 0.06 µg/mL (≈ 0.154 µM). For the same compound, the MIC (anti-bacterial activity) ([5]; strain MSSE 15-6) was 0.06 µg/mL (≈ 0.154 µM), the MIC (anti-bacterial activity) ([6]; strain EFM 15-1) was 0.5 µg/mL (≈ 1.28 µM) and the MIC (anti-bacterial activity) ([6]; strain EFM 15-2) was 1 µg/mL (≈ 2.57 µM). It also gave an MIC (anti-bacterial activity) ([6]; strain EFM 15-3) of 0.25 µg/mL (≈ 0.642 µM), an MIC (anti-bacterial activity) ([6]; strain EFM 15-4) of 2 µg/mL (≈ 5.14 µM) and an MIC (anti-bacterial activity) ([6]; strain EFM 15-5) of 0.25 µg/mL (≈ 0.642 µM). The MIC (anti-bacterial activity) ([6]; strain EFM 15-6) was 2 µg/mL (≈ 5.14 µM), the MIC (anti-bacterial activity) ([7]; strain EFA 15-1) was 4 µg/mL (≈ 10.3 µM) and the MIC (anti-bacterial activity) ([7]; strain EFA 15-2) was 4 µg/mL (≈ 10.3 µM). The MIC (anti-bacterial activity) ([7]; strain EFA 15-3) was 0.25 µg/mL (≈ 0.642 µM), the MIC (anti-bacterial activity) ([7]; strain EFA 15-4) was 4 µg/mL (≈ 10.3 µM) and the MIC (anti-bacterial activity) ([7]; strain EFA 15-5) was 4 µg/mL (≈ 10.3 µM). The MIC (anti-bacterial activity) ([7]; strain EFA 15-6) was 4 µg/mL (≈ 10.3 µM), the MIC (anti-bacterial activity) ([7]; strain EFA 15-9) was 4 µg/mL (≈ 10.3 µM) and the MIC (anti-bacterial activity) ([8]; strain MRSA 15-1) was 0.06 µg/mL (≈ 0.154 µM). The MIC (anti-bacterial activity) ([8]; strain MRSA 15-2) was 0.25 µg/mL (≈ 0.642 µM), the MIC (anti-bacterial activity) ([8]; strain MRSA 15-3) was 0.25 µg/mL (≈ 0.642 µM) and the MIC (anti-bacterial activity) ([8]; strain MRSA 15-4) was 1 µg/mL (≈ 2.57 µM). For the same compound, the MIC (anti-bacterial activity) ([9]; strain BCA 14-1) was 0.5 µg/mL (≈ 1.28 µM), the MIC (anti-bacterial activity) ([9]; strain BCA 14-4) was 1 µg/mL (≈ 2.57 µM) and the MIC (anti-bacterial activity) ([9]; strain BCA 14-5) was 0.25 µg/mL (≈ 0.642 µM). It also gave an MIC (anti-bacterial activity) ([9]; strain BCA 14-6) of 1 µg/mL (≈ 2.57 µM), an MIC (anti-bacterial activity) ([9]; strain BCA 14-7) of 0.25 µg/mL (≈ 0.642 µM) and an MIC (anti-bacterial activity) ([9]; strain BCA 14-8) of 0.25 µg/mL (≈ 0.642 µM). It also gave an MIC (anti-bacterial activity) ([9]; strain BCA 14-10) of 0.25 µg/mL (≈ 0.642 µM) and an inhibition at 30 µM [10] of 24%.
